Experimental findings from patent US9404927B2, “Systems and methods for diagnosing and treating cancer” (The Translational Genomics Research Institute, priority 2013, dated 2016) are described below.

The subject of experiment [1] is HGF-induced Fn14 expression in H2073 cells. Kind of experiment: Immunoblot of HGF-induced Fn14 expression in serum starved H2073 cells. In kind it is cell-based, human. The conditions noted are these: for HGF-induced Fn14 expression: inhibitor 10 μM pre-treated 30 minutes, then HGF (20 ng) three hours. The method, then: FIGS. 5A and 5B illustrate that inhibition of MEK or ERK abrogates HGF-induced expression of Fn14. (FIG. 5A) Serum starved H2073 cells pre-treated with either vehicle, U0126, or LY294002 for 30 minutes were exposed to HGF (20 ng) for three hours. Cells were harvested, total cell lysates were prepared and immunoblotted with antibodies to Fn14. Tubulin was used as a loading control. (FIG. 5B) H1993 cells were treated with either vehicle or U0126 for three hours Immunoblots for phosphorylated ERK1/2 (pERK1/2) and Fn14 were performed with tubulin used as a loading control.
Human NSCLC cell lines H2073 and H1993 (American Type Culture Collection, Manassas, Va.) and mouse cell lines CMT64 and CMT167 (Sigma-Aldrich, St. Louis, Mo.) were maintained in RPMI 1640 (Invitrogen, Carlsbad, Calif.) and DMEM (Invitrogen), respectively, supplemented with 10% heat-inactivated fetal bovine serum (FBS) in a 37° C., 5% CO2 atmosphere. For the HGF stimulation, cells were placed in RPMI 1640 without FBS for 18 hours prior to growth factor exposure.
HGF was purchased from Millipore (Billerica, Mass.). SU11274 and U0126 were purchased from Selleck Chemicals (Houston, Tex.). LY294002 was purchased from Tocris Biosciences (R&D Systems, Minneapolis, Minn.). The final concentrations of inhibitors were SU11274 (2 μM), U0126 (10 μM), and LY294002 (10 μM). Antibodies for immunblot analysis against Fn14, c-Met, and phosphorylated c-Met were purchased from Cell Signaling Technology (Danvers, Mass.), while alpha-tubulin was purchased from Millipore. Immunoblot analysis was performed as previously described (Whitsett T G, et al. (2012) Elevated expression of Fn14 in non-small cell lung cancer correlates with activated EGFR and promotes tumor cell migration and invasion. Am J Pathol 181 1): 111-20).
For orientation: In western blotting, separated proteins are transferred to a membrane and probed.

Experiment [2] relates to Fn14 protein expression in H1993 cells. Kind of experiment: Immunoblot of Fn14 in H1993 cells treated with inhibitors. To be noted: immunoblot vs vehicle. In kind it is cell-based, human. The method, then:
FIGS. 4A-4C illustrate that c-Met amplification enhances Fn14 expression levels in NSCLC cell lines. (FIG. 4A) Total cell lysates were prepared from CMT64 and CMT167 cell lines and immunoblotted with the indicated antibodies. Tubulin was used as a loading control. (FIG. 4B) Total cell lysates were prepared from H2073 (primary adenocarcinoma NSCLC cell line) and H1993 (patient-matched metastatic cell line with known c-Met amplification) and immunoblotted with the indicated antibodies. Tubulin was used as a loading control. (FIG. 4C) H1993 cells were treated with vehicle or SU11274 for 24 hr. Cells were harvested, total cell lysates were prepared and immunoblotted with an antibody against Fn14. Tubulin was used as a loading control. FIGS. 5A and 5B illustrate that inhibition of MEK or ERK abrogates HGF-induced expression of Fn14. […] Cells were harvested, total cell lysates were prepared and immunoblotted with antibodies to Fn14. Tubulin was used as a loading control. […] Human NSCLC cell lines H2073 and H1993 (American Type Culture Collection, Manassas, Va.) and mouse cell lines CMT64 and CMT167 (Sigma-Aldrich, St. Louis, Mo.) were maintained in RPMI 1640 (Invitrogen, Carlsbad, Calif.) and DMEM (Invitrogen), respectively, supplemented with 10% heat-inactivated fetal bovine serum (FBS) in a 37° C., 5% CO2 atmosphere. […]

Take `O=c1cc(N2CCOCC2)oc2c(-c3ccccc3)cccc12` [LY294002]: the “HGF-induced Fn14 expression” value in experiment [1] was “no effect”.
Take `Cc1[nH]c(/C=C2\C(=O)Nc3ccc(S(=O)(=O)N(C)c4cccc(Cl)c4)cc32)c(C)c1C(=O)N1CCN(C)CC1` [SU11274]: in experiment [2] (SU11274 2 μM, 24 hr), the Fn14 protein expression result is “inhibition of the Fn14 protein expression”.
For the compound `N#CC(=C(/N)Sc1ccccc1N)/C(C#N)=C(\N)Sc1ccccc1N` [U0126], the “HGF-induced Fn14 expression” value in experiment [1] was “completely abrogated”. Moreover, the Fn14 protein expression entry in experiment [2] (U0126 10 μM, three hours) is reported as “significantly decreased”.
As for “HGF: hepatocyte growth factor, cognate ligand of c-Met, purchased from Millipore”, the “protein expression of Fn14 on exposure to HGF” value in experiment [1] (HGF (20 ng), three hours) was “enhanced”.
